From PMC8518382, “Identification of a Bromodomain‐like Region in 15‐Lipoxygenase‐1 Explains Its Nuclear Localization” (Angewandte Chemie (International Ed. in English), 2021)
Where “and” joins values, the source holds several entries; their conditions need not be identical. Equal values may be shown once.

Assays:
5-LOX = molecular target: T1, 5-LOX (Homo sapiens, UniProt P09917); test: ABP-based ELISA assay with A549 cell lysate, 5-LOX; assay type: biochemical
T1 construct: the endogenous LOXs were captured on an anti‐LOX antibody precoated 96‐well plate; endogenous in cells; host or cells: A549 cell lysate
T1 sequence (P09917 1-674): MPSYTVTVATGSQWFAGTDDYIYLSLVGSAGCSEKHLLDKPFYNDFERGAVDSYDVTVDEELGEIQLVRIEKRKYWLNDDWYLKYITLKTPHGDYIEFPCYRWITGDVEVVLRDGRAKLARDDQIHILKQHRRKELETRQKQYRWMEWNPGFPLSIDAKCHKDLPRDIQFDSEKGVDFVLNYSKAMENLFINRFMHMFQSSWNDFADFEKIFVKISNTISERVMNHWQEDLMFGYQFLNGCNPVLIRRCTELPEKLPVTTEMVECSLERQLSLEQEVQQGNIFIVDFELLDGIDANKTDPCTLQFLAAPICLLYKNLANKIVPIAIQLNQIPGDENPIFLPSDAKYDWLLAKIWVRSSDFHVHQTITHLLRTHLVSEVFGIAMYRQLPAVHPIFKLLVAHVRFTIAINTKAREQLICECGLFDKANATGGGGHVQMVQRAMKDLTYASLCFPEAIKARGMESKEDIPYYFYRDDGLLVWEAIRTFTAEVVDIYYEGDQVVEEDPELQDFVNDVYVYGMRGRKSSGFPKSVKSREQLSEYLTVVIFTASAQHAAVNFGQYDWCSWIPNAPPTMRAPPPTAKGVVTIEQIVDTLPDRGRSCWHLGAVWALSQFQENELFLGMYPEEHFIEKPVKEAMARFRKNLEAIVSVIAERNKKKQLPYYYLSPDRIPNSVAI
Protocol: (§1) A549 cell lysate was treated with a serial dilution of the respective inhibitor. Subsequently, samples were labeled by treatment with 1 μM of Labelox B for 1 min. […] Data are mean±s.d., n≥3 independent experiments. […]
(§2) 1.6. Immunoblotting Analysis […]
(§3) 1.7. ABPP-based LOX inhibitor specificity validation
(§4) A549 cells were lysed by RIPA buffer supplemented with 1x PIC. After sonication and centrifugation, the supernatant was collected, and the protein concentration was determined by a Pierce BCA Protein Assay Kit (Thermo Fisher Scientific, USA). The lysates were then diluted with PBS to 300 ng/µl and stored in -20°C. To label endogenous LOXs with Labelox B under the competition condition, 180 µl diluted lysates were incubated with 200 µl different LOX inhibitor solution (in PBS) with desired concentrations for 18 min to inhibit LOXs activity. Later, 20 µl of a 20 µM Labelox B (in PBS) was added and incubated shortly for 2 min, followed by adding 50 µl of a 0.5 M EDTA to stop the labeling reaction. The reaction mixture was 450 µl in total. Inhibitors and Labelox B were absent in positive and […]
(§5) negative control, respectively. To detect the competition labeling of Labelox B among different LOXs, a high-binding 96-well plate (Greiner, #M4561) was coated with 5-LOX (#ab169755, Abcam), 12-LOX […]
(§6) (1:500 dilution in PBS) for overnight at 4°C. After washing triply with 0.05%PBST, the plate was blocked with 2% (w/v) BSA in PBST. Subsequently, 100 µl of each reaction mixture was added to the LOX-antibody-coated wells. There are four LOX antibodies used for coating. Therefore, in total, 400 µl mixture is needed for each reaction. After one hour of incubation, LOXs were pulled down by antibodies accordingly. Next, 100 µl of HRP-conjugated streptavidin (1:2000 dilution in PBS, Thermo Fisher Scientific, USA) was added to each well to detect the D04 labeled LOXs among precipitated LOXs. After washing with PBST, 100 µl of mixed HRP substrate reagent (R&D Systems, Minneapolis, USA) was added, and the colorizing reaction was stopped by adding 100 µl of 1M sulfuric acid. The absorbance at […]

15-LOX-1 = molecular target: T2, 15-LOX-1 (Homo sapiens, UniProt P16050); test: ABP-based ELISA assay with A549 cell lysate, 15-LOX-1; assay type: biochemical; set-up: the endogenous LOXs were captured on an anti‐LOX antibody precoated 96‐well plate; endogenous in cells; host or cells: A549 cell lysate
T2 sequence (P16050 1-662): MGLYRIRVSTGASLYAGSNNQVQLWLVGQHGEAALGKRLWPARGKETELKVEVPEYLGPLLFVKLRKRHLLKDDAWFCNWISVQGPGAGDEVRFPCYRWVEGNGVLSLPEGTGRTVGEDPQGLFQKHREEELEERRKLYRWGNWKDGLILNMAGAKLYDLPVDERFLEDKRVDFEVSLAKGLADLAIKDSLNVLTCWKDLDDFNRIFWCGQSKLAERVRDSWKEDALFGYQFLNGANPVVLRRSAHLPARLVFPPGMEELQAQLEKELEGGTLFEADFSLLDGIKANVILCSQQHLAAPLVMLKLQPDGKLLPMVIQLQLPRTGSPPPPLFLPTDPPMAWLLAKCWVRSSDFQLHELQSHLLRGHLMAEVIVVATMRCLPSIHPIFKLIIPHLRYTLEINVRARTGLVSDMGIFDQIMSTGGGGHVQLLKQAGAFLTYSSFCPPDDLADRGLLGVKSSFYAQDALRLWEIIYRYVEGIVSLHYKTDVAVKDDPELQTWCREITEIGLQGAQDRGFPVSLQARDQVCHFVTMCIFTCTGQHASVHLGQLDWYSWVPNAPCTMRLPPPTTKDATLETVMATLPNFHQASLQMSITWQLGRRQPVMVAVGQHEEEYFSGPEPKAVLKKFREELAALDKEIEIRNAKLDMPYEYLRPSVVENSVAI
Protocol: as §1, §2, §3, §4, §5, §6

SMILES | HillSlope Value (5-LOX) | IC50 (5-LOX; 1 μM Labelox B) | HillSlope Value (15-LOX-1) | IC50 (15-LOX-1; 1 μM Labelox B) [µM]
c1ccc2c(c1)SCc1c-2[nH]c2ccccc12 [PD146176] | -0.99 | ~17 µM and 14.8 µM | -0.93 | 17.3
O=c1cc(-c2ccccc2)oc2cc(O)c(O)c(O)c12 [Baicalein] | -0.26 | – | -0.47 | –
